In US10301288B2, “Kinase inhibitors” (Topivert Pharma Limited, priority 2013, dated 2019):

What was measured:
GSK3α = GSK3α (Homo sapiens (Human), UniProt P49840); assay: GSK 3α enzyme inhibition (FRET, Method 2); assay type: biochemical
Method: (§1) The enzyme inhibitory activities of compounds disclosed herein are determined by FRET using synthetic peptides labelled with both donor and acceptor fluorophores (Z-LYTE, Invitrogen Ltd., Paisley, UK).
The inhibitory activities of compounds of the invention against the GSK 3α enzyme isoform (Invitrogen), are evaluated by determining the level of activation/phosphorylation of the target peptide. The GSK3-α protein (500 ng/mL, 2.5 μL) is mixed with the test compound (2.5 μL at either 4 μg/mL, 0.4 μg/mL, 0.04 μg/mL, or 0.004 μg/mL) for 2 hr at RT. The FRET peptide (8 μM, 2.5 μL), which is a phosphorylation target for GSK3α, and ATP (40 μM, 2.5 μL) are then added to the enzyme/compound mixture and the resulting mixture incubated for 1 hr. Development reagent (protease, 5 μL) is added for 1 hr prior to detection in a fluorescence microplate reader (Varioskan® Flash, ThermoFisher Scientific).
(§2) In all cases, the site-specific protease cleaves non-phosphorylated peptide only and eliminates the FRET signal. Phosphorylation levels of each reaction are calculated using the ratio of coumarin emission (donor) over fluorescein emission (acceptor), for which high ratios indicate high phosphorylation and low ratios indicate low phosphorylation levels.

PBMCs [1] = assay: (b) LPS-induced TNFα/IL-8 release in PBMC cells; assay type: cell-based; details: Homo sapiens, read-out: IC50 for Inhibition of Cytokine Release, IL-8
Method: Peripheral blood mononuclear cells (PBMCs) from healthy subjects are separated from whole blood using a density gradient (Lymphoprep, Axis-Shield Healthcare). The PBMCs are seeded in 96 well plates and treated with compounds at the desired concentration for 2 hours before addition of 1 ng/ml LPS (Escherichia Coli 0111:B4 from Sigma Aldrich) for 24 hours under normal tissue culture conditions (37° C., 5% CO2). The supernatant is harvested for determination of IL-8 and TNFα concentrations by sandwich ELISA (Duo-set, R&D systems) and read on the fluorescence microplate reader (Varioskan® Flash, ThermoFisher Scientific).

β-catenin = assay: (m) Accumulation of β catenin in d-U937 cells; assay type: cell-based, human; details: Reference Compound at 1 μg/mL defined as 100%
Method: U937 cells, a human monocytic cell line, are differentiated into macrophage-type cells by incubation with PMA; (100 ng/mL) for between 48 to 72 hr. The cells are then incubated with either final concentrations of test compound or vehicle for 18 hr. The induction of β-catenin by the test compounds is stopped by replacing the media with 4% formaldehyde solution. Endogenous peroxide activity is neutralised by incubating with quenching buffer (100 μL, 0.1% sodium azide, 1% H2O2 in PBS with 0.05% Tween-20) for 20 min. The cells are washed with washing buffer (200 μL; PBS containing 0.05% Tween-20) and incubated with blocking solution (200 μL; 5% milk in PBS) for 1 hr, re-washed with washing buffer (200 μL) and then incubated overnight with anti-β-catenin antibody solution (50 μL) in 1% BSA/PBS (BD, Oxford, UK).
After washing with washing buffer (3×200 μL; PBS containing 0.05% Tween-20), cells are incubated with an HRP-conjugated secondary antibody solution (100 μL) in 1% BSA/PBS (Dako, Cambridge, UK) and the resultant signal is determined colourimetrically (OD: 450 nm with a reference wavelength of 655 nm) using TMB substrate (50 μL; R&D Systems, Abingdon, UK). This reaction is stopped by addition of 1N H2SO4 solution (50 μL). Cells are then washed with washing buffer and 2% crystal violet solution (50 μL) is applied for 30 min. After washing with washing buffer (3×200 μL), 1% SDS (100 μL) is added to each well and the plates are shaken lightly for 1 hr prior to measuring the absorbance at 595 nm (Varioskan® Flash, Thermo-Fisher Scientific).
The measured OD450-655 readings are corrected for cell number by dividing the OD450-655 by the OD595 readings.

c-Src = c-Src (Homo sapiens (Human), UniProt P12931); assay: c-Src enzyme inhibition (FRET); assay type: biochemical
Method: as §1
(§3) The inhibitory activities of compounds of the invention against c-Src and Syk enzymes (Invitrogen), are evaluated in a similar fashion to that described hereinabove. The relevant enzyme (3000 ng/mL or 2000 ng/mL respectively, 2.5 μL) is incubated with the test compound (either 4 μg/mL, 0.4 μg/mL, 0.04 μg/mL, or 0.004 μg/mL, 2.5 μL each) for 2 hr at RT. The FRET peptides (8 μM. 2.5 μL), and appropriate ATP solutions (2.5 μL, 800 μM for c-Src, and 60 μM ATP for Syk) are then added to the enzymes/compound mixtures and incubated for 1 hr. Development reagent (protease, 5 μL) is added for 1 hr prior to detection in a fluorescence microplate reader (Varioskan® Flash, ThermoFisher Scientific).
as §2

Syk = Syk (Homo sapiens (Human), UniProt P43405); assay: Syk enzyme inhibition (FRET); assay type: biochemical
Method: as §1, §3, §2

PBMCs [2] = assay: (i) Cell mitosis assay in PBMCs; assay type: cell-based; details: Homo sapiens, PBMC, 5 μg/mL
Method: PBMCs from healthy subjects are separated from whole blood (Quintiles, London, UK) using a density gradient (Histopaque®-1077, Sigma-Aldrich, Poole, UK). The PBMCs (3 million cells per sample) are subsequently treated with 2% PHA (Sigma-Aldrich, Poole, UK) for 48 hr, followed by a 20 hr exposure to varying concentrations of test compounds. At 2 hr before collection, PBMCs are treated with demecolcine (0.1 μg/mL; Invitrogen, Paisley, UK) to arrest cells in metaphase. […] Fluorescence is observed using an ATTUNE flow cytometer (Invitrogen, Paisley, UK), gating for lymphocytes.

p38 MAPKα = p38 MAPKα (Homo sapiens (Human), UniProt Q16539); assay: p38 MAPKα enzyme inhibition (FRET, Method 2); assay type: biochemical
Method: as §1
The inhibitory activities of test compounds against the p38 MAPKα isoform (MAPK14: Invitrogen), are evaluated indirectly by determining the level of activation/phosphorylation of the down-stream molecule, MAPKAP-K2. The p38 MAPKα protein (80 ng/mL, 2.5 μL) is mixed with the test compound (2.5 μL of either 4 μg/mL, 0.4 μg/mL, 0.04 μg/mL or 0.004 μg/mL) for 2 hr at RT. […] The mixture is incubated for 1 hr at RT. Development reagent (protease, 5 μL) is added for 1 hr prior to detection in a fluorescence microplate reader (Varioskan® Flash, ThermoFisher Scientific).
as §2

PBMCs [3] = assay: (c) IL-2 and IFN gamma release in CD3/CD28 stimulated PBMC cells; assay type: cell-based; details: Homo sapiens
Method: PBMCs from healthy subjects are separated from whole blood using a density gradient (Lymphoprep, Axis-Shield Healthcare). Cells are added to a 96 well plate pre-coated with a mixture of CD3/CD28 monoclonal antibodies (0.3 ug/ml eBioscience and 3 ug/ml BD Pharmingen respectively). Compound at the desired concentration is then added to the wells and the plate left for 3 days under normal tissue culture conditions. […] The IC50 is determined from the dose response curve.

HT29 cells = assay: (d) IL-1β-induced IL-8 release in HT29 cells; assay type: cell-based; details: Homo sapiens, HT-29, read-out: IC50 for Inhibition of Cytokine Release, IL-8
Method: HT29 cells, a human colon adenocarcinoma cell line, are plated in a 96 well plate (24 hrs) and pre-treated with compounds at the desired concentration for 2 hours before addition of 5 ng/ml of IL-1β (Abeam) for 24 hours. Supernatants are harvested for IL-8 quantification by Sandwich ELISA (Duo-set, R&D System). The IC50 is determined from the dose response curve.

[4] = read-out: IC50 for Inhibition of Cytokine Release, IFNγ
[5] = read-out: IC50 for Inhibition of Cytokine Release, IL-2

Sequence of p38 MAPKα (Q16539 whole entry): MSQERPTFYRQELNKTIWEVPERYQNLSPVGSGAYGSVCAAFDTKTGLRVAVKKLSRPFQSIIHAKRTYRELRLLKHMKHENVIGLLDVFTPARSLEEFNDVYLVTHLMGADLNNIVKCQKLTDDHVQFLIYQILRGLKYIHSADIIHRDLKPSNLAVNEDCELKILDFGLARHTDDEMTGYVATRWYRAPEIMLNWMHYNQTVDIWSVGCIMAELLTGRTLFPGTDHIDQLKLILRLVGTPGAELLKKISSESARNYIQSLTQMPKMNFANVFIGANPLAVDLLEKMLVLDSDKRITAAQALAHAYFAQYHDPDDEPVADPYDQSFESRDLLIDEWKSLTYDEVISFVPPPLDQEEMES
Sequence of GSK3α (P49840 whole entry): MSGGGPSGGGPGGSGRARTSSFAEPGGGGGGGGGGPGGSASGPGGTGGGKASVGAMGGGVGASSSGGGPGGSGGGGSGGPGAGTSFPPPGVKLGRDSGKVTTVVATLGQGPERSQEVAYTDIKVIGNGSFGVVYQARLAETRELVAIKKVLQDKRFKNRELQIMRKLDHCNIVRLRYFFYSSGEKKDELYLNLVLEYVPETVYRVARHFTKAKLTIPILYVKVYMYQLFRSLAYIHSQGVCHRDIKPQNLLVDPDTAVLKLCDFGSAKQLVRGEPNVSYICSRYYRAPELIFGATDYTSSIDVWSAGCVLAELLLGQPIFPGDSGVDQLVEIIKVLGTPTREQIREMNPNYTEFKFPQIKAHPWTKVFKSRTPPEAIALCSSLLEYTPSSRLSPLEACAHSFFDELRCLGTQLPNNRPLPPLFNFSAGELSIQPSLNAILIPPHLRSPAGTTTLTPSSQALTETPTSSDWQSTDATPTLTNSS
Sequence of c-Src (P12931 whole entry, looked up): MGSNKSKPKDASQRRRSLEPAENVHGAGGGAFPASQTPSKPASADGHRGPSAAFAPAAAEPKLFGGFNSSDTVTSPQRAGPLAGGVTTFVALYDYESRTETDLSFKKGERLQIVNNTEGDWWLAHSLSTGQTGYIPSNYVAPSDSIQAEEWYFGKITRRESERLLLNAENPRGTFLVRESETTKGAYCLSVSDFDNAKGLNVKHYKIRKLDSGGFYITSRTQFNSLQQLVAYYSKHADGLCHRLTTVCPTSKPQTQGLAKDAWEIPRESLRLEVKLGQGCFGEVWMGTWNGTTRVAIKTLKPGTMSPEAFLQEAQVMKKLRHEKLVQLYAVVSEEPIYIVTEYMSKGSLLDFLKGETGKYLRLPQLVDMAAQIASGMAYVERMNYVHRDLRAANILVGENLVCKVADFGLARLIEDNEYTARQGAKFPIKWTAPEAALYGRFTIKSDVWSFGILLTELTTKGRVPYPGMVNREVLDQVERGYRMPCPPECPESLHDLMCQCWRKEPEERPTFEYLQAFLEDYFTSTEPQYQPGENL

SMILES | IC50 (GSK3α) | IC50 (PBMCs [1]) | % β-catenin induction (β-catenin; 1 μg/mL) | % β-catenin induction (β-catenin; 5 μg/mL) | % β-catenin induction (β-catenin; 10 μg/mL) | IC50 (c-Src) | IC50 (Syk) | inhibition at 5 µg/mL (PBMCs [2]) | IC50 (p38 MAPKα) | IC50 (PBMCs [3]; [4]) | IC50 (PBMCs [3]; [5]) | IC50 (HT29 cells)
C#Cc1cc(Nc2nccc(Oc3ccc(NC(=O)Nc4cc(C(C)C)nn4-c4ccc(C)cc4)c4ccccc34)n2)cc(C(=O)NCCOCCOCCOC)c1 [Example 1, 3-Ethynyl-5-((4-((4-(3-(3-isopropyl-1-(p-tolyl)-1H-pyrazol-5-yl)ureido)-naphthalen-1-yl)oxy)pyrimidin-2-yl)amino)-N-(2-(2-(2-methoxyethoxy)ethoxy)ethyl)-benzamide] | 12800 nM | 1.6 nM | −14% | −13% | −17% | 30 nM | 370 nM | 3.6% | 25 nM |  |  | 
C#Cc1cc(Nc2nccc(Oc3ccc(NC(=O)Nc4cc(C(C)(C)C)nn4-c4ccc(OC)cc4)c4ccccc34)n2)cc(C(=O)NCCOCCOCCOC)c1 [Example 3, 3-((4-((4-(3-(3-(tert-Butyl)-1-(4-methoxyphenyl)-1H-pyrazol-5-yl)ureido)-naphthalen-1-yl)oxy)pyrimidin-2-yl)amino)-5-ethynyl-N-(2-(2-(2-methoxyethoxy)-ethoxy)ethyl)benzamide] | 12200 nM | 1.2 nM | 1% | 6% | 6% | 14 nM | 30 nM | 2.1% | 39 nM | 2 nM | 7.5 nM | 
C#Cc1cc(Nc2nccc(Oc3ccc(NC(=O)Nc4cc(C(C)(C)C)nn4-c4ccc(OC)cc4)c4ccccc34)n2)cc(C(=O)NCCOCCOC)c1 [Example 5, 3-((4-((4-(3-(3-(tert-Butyl)-1-(4-methoxyphenyl)-1H-pyrazol-5-yl)ureido)-naphthalen-1-yl)oxy)pyrimidin-2-yl)amino)-5-ethynyl-N-(2-(2-methoxyethoxy)ethyl)-benzamide] | 13000 nM | 1.2 nM | 8% | 2% | 3% | 13 nM | 34 nM | 10.4% | 33 nM | 1.7 nM | 52.1 nM | 
C#Cc1cc(Nc2nccc(Oc3ccc(NC(=O)Nc4cc(C(C)(C)C)nn4-c4ccc(N(C)C)cc4)c4ccccc34)n2)cc(C(=O)NCCOCCOCCOC)c1 [Example 9, 3-((4-((4-(3-(3-(tert-Butyl)-1-(4-(dimethylamino)phenyl)-1H-pyrazol-5-yl)ureido)-naphthalen-1-yl)oxy)pyrimidin-2-yl)amino)-5-ethynyl-N-(2-(2-(2-methoxyethoxy)-ethoxy)ethyl)benzamide] | 12100 nM | 2.9 nM | 1% | 2% | 4% | 15 nM | 35 nM |  | 98 nM | 8.4 nM |  | 3.5 nM
COCCOCCOCCNC(=O)c1cc(Nc2cc(Oc3ccc(NC(=O)Nc4cc(C(C)(C)C)nn4-c4ccc(N(C)C)cc4)c4ccccc34)ccn2)cc(OC)c1 [Example 10, 3-((4-((4-(3-(3-(tert-Butyl)-1-(4-(dimethylamino)phenyl)-1H-pyrazol-5-yl)ureido)-naphthalen-1-yl)oxy)pyridin-2-yl)amino)-5-methoxy-N-(2-(2-(2-methoxyethoxy)-ethoxy)ethyl)benzamide] | 12000 nM | 3.3 nM | 4% | 2% | 2% | 25 nM | 48 nM |  | 110 nM | 2.7 nM |  | 4.8 nM
